Results published in article PMC11187573, “Identification of SARS-CoV-2 Mpro inhibitors through deep reinforcement learning for de novo drug design and computational chemistry approaches” (RSC Medicinal Chemistry, 2024).

How the values were obtained:
SARS-CoV-2 main protease [1] = settings: cited from earlier work; for IC50: Docking_validation.csv, ref COVID Moonshot, read-out: f_avg_IC50; for f_avg_pIC50: Covid_Moonshot_activity_data.csv, ref COVID Moonshot (covid.postera.ai)
[2] = test system: SARS, SARS-CoV-2 and MERS Mpro; settings: Origin COVID_Moonshot; ref COVID Moonshot; cited from earlier work
SARS-CoV-2 main protease [3] = format: biochemical; settings: Docking validation set, class assigned from COVID Moonshot IC50
trypsin = test system: trypsin; set-up: method as in COVID Moonshot; settings: Docking_validation.csv; ref COVID Moonshot; read-out: trypsin_IC50; cited from earlier work
Mpro = settings: ML dataset, Origin COVID_Moonshot; ref COVID Moonshot; cited from earlier work
[4] = target: recombinant SARS-CoV-2 main protease Mpro (Severe acute respiratory syndrome coronavirus 2, UniProt P0DTC1); assay: FRET-based Mpro proteolytic activity assay; format: biochemical; settings: for IC50: Mpro FRET (1 μM DTT)

O=C(Nc1cncc2ccccc12)C1COc2ccc(Cl)cc21 (centres unmarked) [MAT-POS-f7918075-2, O=C(Nc1cncc2ccccc12)C1COc2ccc(Cl)cc21]
IC50 (SARS-CoV-2 main protease [1]): 764 nM
IC50 [2]: 2600 nM

Cc1ccncc1NC(=O)Cc1cncc(Cl)c1 [TRY-UNI-2eddb1ff-2, Cc1ccncc1NC(=O)Cc1cncc(Cl)c1]
IC50 (SARS-CoV-2 main protease [1]): 46400 nM
label (active / inactive) (SARS-CoV-2 main protease [3]): inactive
IC50 (trypsin): 99000 nM

CC(=O)NCCc1c[nH]c2ccc(O)cc12 [JOH-MSK-a63bdd1d-4, CC(=O)NCCc1c[nH]c2ccc(O)cc12]
label (active / inactive) (SARS-CoV-2 main protease [3]): inactive

CCOC(=O)c1c(C)n(S(C)(=O)=O)c2ccc(N(C(=O)c3ccco3)S(C)(=O)=O)cc12 [LON-WEI-4d77710c-8, CCOC(=O)c1c(C)n(S(C)(=O)=O)c2ccc(N(C(=O)c3ccco3)S(C)(=O)=O)cc12]
IC50 (SARS-CoV-2 main protease [1]): 282 nM
IC50 (Mpro): 214 nM
IC50 [2]: 282 nM

O=S(=O)(Cc1ccccc1F)c1oc(-c2ccc(F)cc2)nc1S(=O)(=O)c1ccccc1 [LON-WEI-4d77710c-2, O=S(=O)(Cc1ccccc1F)c1oc(-c2ccc(F)cc2)nc1S(=O)(=O)c1ccccc1]
IC50 (SARS-CoV-2 main protease [1]): 397 nM
IC50 (Mpro): 248 nM
IC50 [2]: 397 nM

NCc1cn(CC(=O)N(CC(=O)N2CCNCC2)c2ccc(-c3ccccc3)cc2)nn1 [ALP-POS-c0c213c9-7, NCc1cn(CC(=O)N(CC(=O)N2CCNCC2)c2ccc(-c3ccccc3)cc2)nn1]
label (active / inactive) (SARS-CoV-2 main protease [3]): inactive

Cc1cncc(CC(=O)N2CCC[C@H]2c2cccc(Cl)c2)c1 [Compound 7, (S)-1-(2-(3-chlorophenyl)pyrrolidin-1-yl)-2-(5-methylpyridin-3-yl)ethan-1-one]
IC50 [4]: 5600 nM

O=C(NCC1(C(=O)Nc2cncc3ccccc23)CCOc2ccc(Cl)cc21)C1COCCN1CC(F)(F)F (centres unmarked) [MAT-POS-932d1078-1, O=C(NCC1(C(=O)Nc2cncc3ccccc23)CCOc2ccc(Cl)cc21)C1COCCN1CC(F)(F)F]
f_avg_pIC50 (SARS-CoV-2 main protease [1]): 4.666

Cc1ccc(-n2ncc3c(=O)n(CC(N)=O)cnc32)cc1C [JAG-UCB-ef2c0e8e-4, Cc1ccc(-n2ncc3c(=O)n(CC(N)=O)cnc32)cc1C]
label (active / inactive) (SARS-CoV-2 main protease [3]): inactive

COC[C@@]1(C(=O)Nc2cncc3ccccc23)CCOc2cc(Cl)c(Cl)cc21 [MAT-POS-932d1078-5, COC[C@@]1(C(=O)Nc2cncc3ccccc23)CCOc2cc(Cl)c(Cl)cc21]
f_avg_pIC50 (SARS-CoV-2 main protease [1]): 4.772

CC(=O)N1CCN(CC(=O)Nc2cnccc2C)CC1 [BEN-DND-93268d01-8, CC(=O)N1CCN(CC(=O)Nc2cnccc2C)CC1]
label (active / inactive) (SARS-CoV-2 main protease [3]): inactive

c1ccc(-c2cc(Sc3nnc(-c4cccs4)o3)n3ncnc3n2)cc1 [LON-WEI-4d77710c-76, c1ccc(-c2cc(Sc3nnc(-c4cccs4)o3)n3ncnc3n2)cc1]
IC50 (SARS-CoV-2 main protease [1]): 221 nM
IC50 (Mpro): 187 nM
IC50 [2]: 221 nM

O=C(Cc1cccc(Cl)c1)Nc1cnnc2ccccc12 [EDJ-MED-50fe53e8-2, O=C(Cc1cccc(Cl)c1)Nc1cnnc2ccccc12]
label (active / inactive) (SARS-CoV-2 main protease [3]): inactive

Cc1ccncc1NC(=O)N(C)c1cccc(Cl)c1 [EDG-MED-0da5ad92-3, Cc1ccncc1NC(=O)N(C)c1cccc(Cl)c1]
label (active / inactive) (SARS-CoV-2 main protease [3]): inactive

CC1C(O)CCCN1Cc1ccccc1 (centres unmarked) [MAK-UNK-6435e6c2-9, CC1C(O)CCCN1Cc1ccccc1]
label (active / inactive) (SARS-CoV-2 main protease [3]): inactive

COC[C@]1(C(=O)Nc2cncc3ccccc23)CCOc2cc(Cl)c(Cl)cc21 [MAT-POS-932d1078-4, COC[C@]1(C(=O)Nc2cncc3ccccc23)CCOc2cc(Cl)c(Cl)cc21]
f_avg_pIC50 (SARS-CoV-2 main protease [1]): 5.492

O=C(COc1ccccc1F)Nc1ncnc2[nH]cnc12 [COM-UCB-8c7d23dc-1, O=C(COc1ccccc1F)Nc1ncnc2[nH]cnc12]
label (active / inactive) (SARS-CoV-2 main protease [3]): inactive

Cc1[nH]c2ncnc(NC(=O)c3cc4ccccc4c(=O)o3)c2c1C [COM-UCB-8c7d23dc-12, Cc1[nH]c2ncnc(NC(=O)c3cc4ccccc4c(=O)o3)c2c1C]
label (active / inactive) (SARS-CoV-2 main protease [3]): inactive

Cn1ccc(CN(C(=O)Cc2cccnc2)c2ccc(-c3ccccn3)cc2)n1 [ALP-POS-c0c213c9-14, Cn1ccc(CN(C(=O)Cc2cccnc2)c2ccc(-c3ccccn3)cc2)n1]
label (active / inactive) (SARS-CoV-2 main protease [3]): inactive

NS(=O)(=O)c1ccc(N2CCC([C@@H]3CCCO3)CC2)cc1 [WAR-XCH-b72a1bbc-18, NS(=O)(=O)c1ccc(N2CCC([C@@H]3CCCO3)CC2)cc1]
label (active / inactive) (SARS-CoV-2 main protease [3]): inactive

Cc1ccn2c(-c3ccc4[nH]ncc4c3)c(-c3ccc(F)cc3)nc2c1 [ALV-UNI-7ff1a6f9-14, Cc1ccn2c(-c3ccc4[nH]ncc4c3)c(-c3ccc(F)cc3)nc2c1]
label (active / inactive) (SARS-CoV-2 main protease [3]): inactive

Cc1cncc(CC(=O)N2CCc3cc(Cl)c(Cl)cc3C2)c1 [Compound 12, 1-(6,7-dichloro-3,4-dihydroisoquinolin-2(1H)-yl)-2-(5-methylpyridin-3-yl)ethan-1-one]
IC50 [4]: 2300 nM
fold improvement of Mpro FRET IC50 after first round of optimization ([4]; relative to the parent hit (compound 8 or 10)): 27 fold
